Assay results: patent publication US8586822B2, “Methods for producing a non human model for aortic aneurysm” (INSERM (Institut National de la Sante et de la Recherche …, priority 2007, dated 2013)

Assays:
[1] = tested on: CD28− mice treated with angiotensin II; assay: CD28− mice treated with angiotensin II and trichostatin; format: in vivo, mouse; conditions: 1 mg/kg/day for 14 days, angiotensin II-infused CD28− mice
Protocol: Baseline blood pressure measurements were determined on 5 consecutive days. After these baseline recordings, an osmotic minipump (Alzet Model 2004; DURECT) infusing Angiotensin II (Ang II) (Sigma, St. Louis, Mo.) at a rate of 1,000 ng/kg/min was implanted s.c. and blood pressure measurements continued for 28 days to verify continuous hypertension. The animals ingested either a normal diet containing 0.4% sodium chloride or a high salt diet with 5% sodium chloride (SDS) to accentuate hypertension and kidney injury. All animals studied were between 8 and 14 wk old. The protocol followed the French Department of Agriculture and the National Institute of Health guidelines for animal care and protection. For both strains, all experiments used age- and sex-matched wild-type and genetically altered animals with similar genetic background (C57Bl/6J background). Normal C57Bl/6J and CD28 deficient animals were obtained from Charles River Laboratories. B7.1/B7.2 (CD80/CD86) deficient animals were obtained from Dr. Benoit Salomon (Université Pierre et Marie Curie-CNRS U7087 laboratory, Paris). Anti-pan-TGF-beta antibody (clone 2G7) was administrated thrice a week i.p. at the dose of 500 μg/mouse for two weeks, then at the dose of 150 μg/mouse for the following two weeks. […]

[2] = tested on: AAA; conditions: in vivo; cited from earlier work

CC(/C=C/C(=O)NO)=C\[C@@H](C)C(=O)c1ccc(N(C)C)cc1 [trichostatin]
aneurysm [1]: prevented aneurysm

CC[C@H]1OC(=O)[C@H](C)[C@@H](O[C@H]2C[C@@](C)(OC)[C@@H](O)[C@H](C)O2)[C@H](C)[C@@H](O[C@@H]2O[C@H](C)C[C@H](N(C)C)[C@H]2O)[C@](C)(O)C[C@@H](C)/C(=N\OCOCCOC)[C@H](C)[C@@H](O)[C@]1(C)O [roxithromycin]
effects in AAA [2]: modest effects
